This note sets out measurements from ChEMBL document CHEMBL1629478, “Novel alkyl- and arylcarbamate derivatives with N-benzylpiperidine and N-benzylpiperazine moieties as cholinesterases inhibitors” (Eur J Med Chem, 2010).

Each structure is given as a SMILES string. Activity calls are given as the source filed them. The calls are words filed in the database; no cut-off is given here.

Assay [1] addresses Acetylcholinesterase (Electrophorus electricus) (UniProt O42275). Put plainly: Inhibition of electric eel AChE at 100 uM preincubated for 5 mins by Ellman's method. (In general: Ellman's reagent forms a yellow product with free thiols.)
For assay [2], the target named is Cholinesterase (Equus caballus) (UniProt P81908). As to the kind of experiment: Inhibition of horse serum BChE at 100 uM preincubated for 5 mins by Ellman's method.
Chain of Cholinesterase (Equus caballus) (P81908 whole entry): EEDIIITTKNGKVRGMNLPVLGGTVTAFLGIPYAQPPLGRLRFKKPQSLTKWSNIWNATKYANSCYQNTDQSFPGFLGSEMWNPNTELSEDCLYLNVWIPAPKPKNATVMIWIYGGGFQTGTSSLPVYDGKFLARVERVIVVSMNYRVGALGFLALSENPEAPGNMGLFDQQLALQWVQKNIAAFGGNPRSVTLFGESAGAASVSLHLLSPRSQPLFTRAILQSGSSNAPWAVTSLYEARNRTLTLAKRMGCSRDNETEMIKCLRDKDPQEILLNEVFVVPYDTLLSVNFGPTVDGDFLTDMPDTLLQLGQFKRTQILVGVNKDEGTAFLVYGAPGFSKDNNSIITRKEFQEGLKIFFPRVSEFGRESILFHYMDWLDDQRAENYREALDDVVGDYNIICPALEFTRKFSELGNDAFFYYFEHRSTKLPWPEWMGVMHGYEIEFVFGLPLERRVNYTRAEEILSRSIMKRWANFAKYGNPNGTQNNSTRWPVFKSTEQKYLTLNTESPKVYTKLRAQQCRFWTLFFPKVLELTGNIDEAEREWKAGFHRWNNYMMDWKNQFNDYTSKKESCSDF
The target in the next assay is Cholinesterase (Equus caballus, UniProt P81908).
Chain of Cholinesterase (P81908 whole entry): as above
For assay [3], the target named is Cholinesterase (Equus caballus) (UniProt P81908). As to the kind of experiment: Mixed-type inhibition of horse serum BChE by Lineweaver-Burk plot analysis.
For assay [4], the target named is Acetylcholinesterase (Electrophorus electricus) (UniProt O42275). Put plainly: Non-competitive inhibition of electric eel AChE by Lineweaver-Burk plot analysis.
Chain of Acetylcholinesterase (Electrophorus electricus) (O42275 24-633 limits assumed): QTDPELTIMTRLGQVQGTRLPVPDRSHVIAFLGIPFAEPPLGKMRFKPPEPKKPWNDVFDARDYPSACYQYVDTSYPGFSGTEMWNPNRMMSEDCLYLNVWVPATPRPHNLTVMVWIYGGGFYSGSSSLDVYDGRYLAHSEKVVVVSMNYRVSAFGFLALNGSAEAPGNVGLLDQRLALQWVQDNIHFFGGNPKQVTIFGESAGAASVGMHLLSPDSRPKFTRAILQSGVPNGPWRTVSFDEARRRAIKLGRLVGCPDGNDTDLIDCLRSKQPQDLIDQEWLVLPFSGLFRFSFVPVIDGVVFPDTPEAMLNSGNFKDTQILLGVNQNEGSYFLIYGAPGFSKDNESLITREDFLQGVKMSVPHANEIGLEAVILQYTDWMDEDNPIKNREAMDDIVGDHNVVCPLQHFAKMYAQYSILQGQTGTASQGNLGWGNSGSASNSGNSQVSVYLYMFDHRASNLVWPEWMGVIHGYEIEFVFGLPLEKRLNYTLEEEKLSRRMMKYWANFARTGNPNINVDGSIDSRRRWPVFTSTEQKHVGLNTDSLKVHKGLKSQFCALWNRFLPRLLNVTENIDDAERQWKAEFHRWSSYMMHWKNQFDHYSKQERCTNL

As a reminder, the inhibition is the change of the read-out against control, counted positive when it falls. For orientation: IC50 means the concentration that gives 50% inhibition. A high value points to weaker potency. In the case of `CCNC(=O)Oc1cccc(CC(=O)NC2CCN(Cc3ccccc3)CC2)c1`, the inhibition worked out at 28.5% in assay [1] and 68.6% in assay [2]. In addition, it took 37.2 µM to reach half-maximal inhibition on Cholinesterase (IC50).

For `CCNC(=O)Oc1ccc(CC(=O)NC2CCN(Cc3ccccc3)CC2)cc1`, the inhibition in assay [1] amounted to 23.4%; in assay [2], 90.4%. Half-maximal inhibition at Cholinesterase (IC50) required 10.7 µM.

Turning to `CCCNC(=O)Oc1ccc(CC(=O)N2CCN(Cc3ccccc3)CC2)cc1`, the inhibition result in assay [1] is “inactive”. This compound also yielded an inhibition in assay [2] of 88.3%. On Cholinesterase, this compound showed an IC50 of 32.4 µM.

Turning to `Cc1ccccc1NC(=O)Oc1ccc(CC(=O)NC2CCN(Cc3ccccc3)CC2)cc1`, the inhibition was 24.7% in assay [1] and 46.9% in assay [2].

Consider `CN(C)C(=O)Oc1cccc(CC(=O)NC2CCN(Cc3ccccc3)CC2)c1`, for which the inhibition in assay [1] stood at 50.5%; in assay [2] it was 82.1%. Besides, the inhibition result in assay [3] and in assay [4] was “Active” throughout. On Cholinesterase, half-maximal inhibition (IC50) was put at 21.9 µM.

Turning to `CN(C)C(=O)Oc1ccc(CC(=O)N2CCN(Cc3ccccc3)CC2)cc1`, the inhibition entry in assay [1] is “inactive”. This compound registered an inhibition in assay [2] of 32.5%.

Consider `O=C(Cc1ccc(O)cc1)N1CCN(Cc2ccccc2)CC1`, for which the inhibition result in assay [1] was “inactive”. The compound also returned an inhibition in assay [2] of 45.3%.

Consider `CC(C)NC(=O)Oc1ccc(CC(=O)N2CCN(Cc3ccccc3)CC2)cc1`, for which the inhibition result in assay [1] is “inactive”. In assay [2], this compound yielded an inhibition of 72.2%. Half-maximal inhibition at Cholinesterase (IC50) required 52.5 µM.

With `CC(C)NC(=O)Oc1cccc(CC(=O)NC2CCN(Cc3ccccc3)CC2)c1`, the inhibition in assay [1] amounted to 34.9%; in assay [2] it was 72.2%. The compound also had a half-inhibitory concentration (IC50) against Cholinesterase of 29.5 µM.

Consider `O=C(Cc1ccc(O)cc1)NC1CCN(Cc2ccccc2)CC1`, for which the inhibition in assay [1] came out at 15.2%; in assay [2], 45.6%.

As to `CCCNC(=O)Oc1ccc(CC(=O)NC2CCN(Cc3ccccc3)CC2)cc1`, the inhibition came to 33.8% in assay [1] and 95.1% in assay [2]. At Cholinesterase, inhibition was half-maximal at 9.33 µM (IC50).

On to `CN(C)C(=O)Oc1cccc(CC(=O)N2CCN(Cc3ccccc3)CC2)c1`, for which the inhibition entry in assay [1] is “inactive”. The inhibition in assay [2] stood at 79%. The compound also showed an IC50 on Cholinesterase of 23.4 µM.

In the case of `O=C(Cc1cccc(O)c1)N1CCN(Cc2ccccc2)CC1`, in assay [1], the inhibition entry is “inactive”. The same compound showed an inhibition in assay [2] of 31.5%.

In the case of `CCCCNC(=O)Oc1cccc(CC(=O)N2CCN(Cc3ccccc3)CC2)c1`, the inhibition result in assay [1] is “inactive”. This compound also displayed an inhibition in assay [2] of 92.7%. Inhibition on Cholinesterase was half-maximal at 10 µM (IC50).

Regarding `CN(C)C(=O)Oc1ccc(CC(=O)NC2CCN(Cc3ccccc3)CC2)cc1`, the inhibition was found to be 46.2% in assay [1] and 89.8% in assay [2]. For the same compound, the IC50 on Cholinesterase is 8.91 µM.

With `CCCCNC(=O)Oc1ccc(CC(=O)N2CCN(Cc3ccccc3)CC2)cc1`, the inhibition entry in assay [1] was “inactive”. The same compound registered an inhibition in assay [2] of 83.1%. The compound also gave an IC50 at Cholinesterase of 16.6 µM.

Take `CCCCNC(=O)Oc1ccc(CC(=O)NC2CCN(Cc3ccccc3)CC2)cc1`: the inhibition in assay [1] worked out at 43.7%; in assay [2], 63.4%. The same compound showed an IC50 against Cholinesterase of 11.7 µM.

As for `CCNC(=O)Oc1ccc(CC(=O)N2CCN(Cc3ccccc3)CC2)cc1`, the inhibition result in assay [1] is “inactive”. Moreover, in assay [2], the inhibition was 83.4%. On Cholinesterase, this compound registered an IC50 of 43.7 µM.

Take `CCCCNC(=O)Oc1cccc(CC(=O)NC2CCN(Cc3ccccc3)CC2)c1`: the inhibition in assay [1] amounted to 39.9%; in assay [2], 92%. Also, half-maximal inhibition on Cholinesterase (IC50) required 5.75 µM.

For `O=C(Cc1cccc(O)c1)NC1CCN(Cc2ccccc2)CC1`, the inhibition in assay [1] came out at 38.1%; in assay [2], 49.8%.

Consider `CC(C)NC(=O)Oc1cccc(CC(=O)N2CCN(Cc3ccccc3)CC2)c1`, for which the inhibition result in assay [1] is “inactive”. Besides, the inhibition in assay [2] was 77.7%. For the same compound, at Cholinesterase, the IC50 is 35.5 µM.

Take `CC(C)NC(=O)Oc1ccc(CC(=O)NC2CCN(Cc3ccccc3)CC2)cc1`: the inhibition was determined as 19.2% in assay [1] and 63.1% in assay [2]. Further, the half-inhibitory concentration (IC50) against Cholinesterase is 18.2 µM.

`CCNC(=O)Oc1cccc(CC(=O)N2CCN(Cc3ccccc3)CC2)c1`: the inhibition entry in assay [1] is “inactive”. Besides, in assay [2], the inhibition was found to be 62.5%. On Cholinesterase, this compound showed an IC50 of 55 µM.
